Data on four compounds can be found in patent US11793774B2, “Chiral beta-hydroxyethylamines and their use in the treatment of hyperglycemia” (ATROGI AB, priority 2017, dated 2023).

Test [1] deals with L6-myotubes. The experiment in a line: Glucose uptake (3H-2-deoxy-glucose) in differentiated L6-myotubes. The test is classed as cell-based. Particulars: agonist final concentration 1×10^−5, 3H-2-deoxy-glucose uptake, relative to isoproterenol. How it is done:
L6-myoblasts were grown in Dulbecco's Modified Eagle's Medium (DMEM) containing 4.5 g/l glucose supplemented with 10% fetal bovine serum, 2 mM L-Glutamine, 50 U/ml penicillin, 50 μg/ml streptomycin and 10 mM HEPES. Cells were plated at 1×10^5 cells per ml in 24-well plates. After reaching 90% confluence the cells were grown in medium containing 2% FBS for 7 days where upon cells differentiated into myotubes. Differentiated L6-myotubes were serum-starved over night in medium containing 0.5% fatty-acid free BSA and stimulated with agonist, final concentration 1×10^−5. After 1 h 40 min cells were washed with warm, glucose free medium or PBS and another portion of agonist was added to glucose free medium. After 20 min the cells were exposed to 50 nM ^3H-2-deoxy-glucose for another 10 min before washed in ice cold glucose free medium or PBS and lysed in 0.2 M NaOH for 1 h in 60° C.

Test [2] relates to Intracellular cAMP levels. The test can be described thus: Measurement of intracellular cAMP levels in differentiated cells (alpha screen cAMP kit). The test is classed as cell-based. Particulars: agonist final concentration 1×10^−5, 15 min, 1 mM IBMX, relative to isoproterenol. How it is done:
L6-myoblasts were grown in Dulbecco's Modified Eagle's Medium (DMEM) containing 4.5 g/l glucose supplemented with 10% fetal bovine serum, 2 mM L-Glutamine, 50 U/ml penicillin, 50 μg/ml streptomycin and 10 mM HEPES. Cells were plated at 1×10^5 cells per ml in 24-well plates. After reaching 90% confluence the cells were grown in medium containing 2% FBS for 7 days where upon cells differentiated into myotubes.
Differentiated cells were serum-starved over night and stimulated with agonist, final concentration 1×10^−5, for 15 min in stimulation buffer (HBSS supplemented with 1% BSA, 5 mM HEPES and 1 mM IBMX, pH 7.4) The medium was then aspirated and to end the reaction 100 μL of 95% EtOH was added to each well of a 24-well plate and cells were kept in −20° C. over night. The EtOH was let to evaporate and 500 μL of lysis buffer (1% BSA, 5 mM HEPES and 0.3% Tween-20, pH 7.4) was added to each well before put in −80° C. for 30 min and then kept in −20° C. Intracellular cAMP levels were detected using an alpha screen cAMP kit (6760635D from Perkin Elmer). The activity for each compound is compared to that of isoproterenol.
A general note: Cyclic AMP is a second messenger, typically raised through Gs and lowered through Gi signalling.

For the compound `CCC[C@@H](C)NC[C@H](O)c1cccc(F)c1` [Example 6, (R)-1-(3-fluorophenyl)-2-(((R)-pentan-2-yl)amino)ethan-1-ol], in test [1], the “Biological example 1: glucose uptake activity compared to that of isoproterenol” value was “++ (between 75 and 50%)”. Besides, the “Biological example 2: intracellular cAMP activity compared to that of isoproterenol” value in test [2] is recorded as “− (less than 25%)”.

In the case of `CCC[C@@H](C)NC[C@H](O)c1cccc(O)c1` [Example 4, 3-((R)-1-Hydroxy-2-(((R)-pentan-2-yl)amino)ethyl)phenol Hemisulphate], the “Biological example 1: glucose uptake activity compared to that of isoproterenol” value in test [1] is reported as “+++ (activity of more than 75% of that of isoproterenol)”. In addition, the “Biological example 2: intracellular cAMP activity compared to that of isoproterenol” value in test [2] was “++ (between 75 and 50%)”.

Take `CCC[C@@H](C)NC[C@H](O)c1ccc(O)cc1` [Example 2, 4-((R)-1-Hydroxy-2-(((R)-pentan-2-yl)amino)ethyl)phenol Hemisulphate]: the “Biological example 1: glucose uptake activity compared to that of isoproterenol” value in test [1] is “++ (between 75 and 50%)”. Also, the “Biological example 2: intracellular cAMP activity compared to that of isoproterenol” value in test [2] was “+ (between 50 and 25%)”.

With `CCC[C@@H](C)NC[C@H](O)c1ccc(F)cc1` [Example 5, (R)-1-(4-Fluorophenyl)-2-(((R)-pentan-2-yl)amino)ethan-1-ol], in test [1], the “Biological example 1: glucose uptake activity compared to that of isoproterenol” value is “++ (between 75 and 50%)”. In addition, the “Biological example 2: intracellular cAMP activity compared to that of isoproterenol” value in test [2] is “− (less than 25%)”.
